Source: patent US20220039384A1, “SELECTIVE WEED CONTROL WITH HALAUXIFEN OR 4-AMINO-3-CHLORO-5-FLUORO-6-(4-CHLORO-2-FLUORO-3-METHOXYPHENYL) PYRIDINE-2-CARBOXYLIC ACID OR DERIVATIVES THEREOF IN VINEYARDS OR PERENNIAL CROPS” (Corteva Agriscience LLC, priority 2013, published 2022)

Tests used:
Format in all cases: in vivo
VITSS (Vitis spp, grape) = experiment: Field trial, soil-applied dormant application (December), California vineyards: vine injury and growth response; conditions: applied to the soil
Description: (§1) As used herein, selective pre- and post-emergence control of undesirable vegetation means preventing, reducing, killing, or otherwise adversely modifying the development of the undesirable vegetation in the presence of crop plants with limited adverse effect on the crop plants. For example, a broadleaf weed control of 80% (rated visually) with crop injury of less than or equal to 20% (rated visually) would constitute selective control. In some embodiments the adverse effect on crop plants is limited to less than 10% visually rated crop injury. Visual crop injury is a composite rating accounting for all phytotoxic effects including chlorosis, necrosis, growth inhibition, epinasty, delays in maturity and seed or fruit deformity. Visual weed control is a composite rating accounting for reductions in pest plant biomass and/or stand reduction.
(§2) Small plot research experiments were conducted in Fresno, Calif., USA to evaluate the pre-emergence and post-emergence herbicidal weed control activity and the vines crop tolerance to pre-emergence and post-emergence application of Compound I and Compound II to the weeds. Application water volume of 100 to 187 liters per hectare (L/ha) was used for all experiments. All treatments were applied with a standard small plot carbon dioxide (CO2) backpack sprayer. All treatments were tank-mixed with Crop Oil Concentrate (COC), a well known adjuvant, at 2.34 L/ha. Experimental emulsifiable concentrate (EC) formulations were used for Compounds I and II. The dimethylammonium (DMA) salt of glyphosate was used in all trials. Pindar® GT is a commercial formulation containing a pre-mix of penoxsulam+oxyfluorfen (10+476 grams of active ingredient per liter (g ai/L), respectively). Vine crop stage was dormant (no leaves on the vines during the winter) or early spring growth at the time of Compound I or Compound II application. Generally, weeds were not emerged for the pre-emergence treatments or were at the two to six-leaf stage at the time of the post-emergence herbicide application.
(§3) Tables 1, 2 and 6 provide weed control results from pre-emergence applications of Compounds I and/or II prior to weed emergence; Tables 4, 7 and 8 provide weed control results from post-emergence applications of Compounds I and/or II applied to actively growing weeds; Tables 3 and 5 provide vine response data from pre-emergence and post-emergence applications of Compound I respectively.

[1] = tested on: AGRRE (Agropyron repens, quackgrass); experiment: Field trial, post-emergence directed spring application (April), California vineyards: visual weed control
Description: as §1, §2, §3

[2] = tested on: SETFA (Setaria faberi, giant foxtail); experiment: as above
Description: as §1, §2, §3

[3] = tested on: ERIBO (Conyza bonariensis, hairy fleabane); experiment: as above
Description: as §1, §2, §3

[4] = tested on: MALPA (Malva parviflora, smallflower malva); experiment: as above
Description: as §1, §2, §3

[5] = tested on: PANCA (Panicum capillare, witchgrass); experiment: as above
Description: as §1, §2, §3

[6] = tested on: EROCI (Erodium cicutarium, redstem filaree); experiment: as above
Description: as §1, §2, §3

[7] = tested on: AMARE (Amaranthus retroflexus, redroot pigweed); experiment: Field trial, post-emergence directed dormant application (December), California vineyards: visual weed control
Description: as §1, §2, §3

[8] = tested on: AMSIN (Amsinckia intermedia, coast fiddleneck); experiment: as above
Description: as §1, §2, §3

[9] = tested on: CHEAL (Chenopodium album, common lambsquarters); experiment: as above
Description: as §1, §2, §3

[10] = tested on: CAPBP (Capsella bursa-pastoris, Shepherd's purse); experiment: as above
Description: as §1, §2, §3

[11] = tested on: IPOSS (Ipomoea spp, morningglory); experiment: as above
Description: as §1, §2, §3

[12] = tested on: STEME (Stellaria media, common chickweed); experiment: Field trial, post-emergence directed spring application (March), California vineyards: visual weed control
Description: as §1, §2, §3

[13] = tested on: MALPA (Malva parviflora, smallflower malva); experiment: as above
Description: as §1, §2, §3

[14] = tested on: MEDPO (Medicago polymorpha, California burclover); experiment: as above
Description: as §1, §2, §3

[15] = tested on: EROCI (Erodium cicutarium, redstem filaree); experiment: as above
Description: as §1, §2, §3

[16] = tested on: CLNCM (Calandrinia ciliata, rock purslane); experiment: Field trial, pre-emergence application (February), California vineyards: visual weed control
Description: as §1, §2, §3

[17] = tested on: AMSIN (Amsinckia intermedia, coast fiddleneck); experiment: as above
Description: as §1, §2, §3

[18] = tested on: CAPBP (Capsella bursa-pastoris, Shepherd's purse); experiment: as above
Description: as §1, §2, §3

COC(=O)c1nc(-c2ccc(Cl)c(OC)c2F)cc(N)c1Cl [I—Me, methyl 4-amino-3-chloro-6-(4-chloro-2-fluoro-3-methoxyphenyl)pyridine-2-carboxylate]
VITSS % Visual Injury 124 DAA (VITSS (Vitis spp, grape); 10 g ae/ha): 0% | VITSS % Visual Injury 184 DAA (VITSS (Vitis spp, grape); 10 g ae/ha): 15% | VITSS Branch Length (cm) 184 DAA (VITSS (Vitis spp, grape); 10 g ae/ha): 187 cm | VITSS Internode Length (cm) 184 DAA (VITSS (Vitis spp, grape); 10 g ae/ha): 7 cm | VITSS Yield (Lbs) 236 DAA (VITSS (Vitis spp, grape); 10 g ae/ha): 71 Lbs | VITSS % Visual Injury 124 DAA (VITSS (Vitis spp, grape); 20 g ae/ha): 0% | VITSS % Visual Injury 184 DAA (VITSS (Vitis spp, grape); 20 g ae/ha): 18% | VITSS Branch Length (cm) 184 DAA (VITSS (Vitis spp, grape); 20 g ae/ha): 172 cm | VITSS Internode Length (cm) 184 DAA (VITSS (Vitis spp, grape); 20 g ae/ha): 7 cm | VITSS Yield (Lbs) 236 DAA (VITSS (Vitis spp, grape); 20 g ae/ha): 63 Lbs | VITSS % Visual Injury 124 DAA (VITSS (Vitis spp, grape); 40 g ae/ha): 0% | VITSS % Visual Injury 184 DAA (VITSS (Vitis spp, grape); 40 g ae/ha): 37% | VITSS Branch Length (cm) 184 DAA (VITSS (Vitis spp, grape); 40 g ae/ha): 125 cm | VITSS Internode Length (cm) 184 DAA (VITSS (Vitis spp, grape); 40 g ae/ha): 6 cm | VITSS Yield (Lbs) 236 DAA (VITSS (Vitis spp, grape); 40 g ae/ha): 31 Lbs | % Visual Control 60 DAA AGRRE ([1]; 5 g ae/ha): 87% | % Visual Control 60 DAA AGRRE ([1]; 10 g ae/ha): 80% | % Visual Control 60 DAA AGRRE ([1]; 20 g ae/ha): 83% | % Visual Control 60 DAA SETFA ([2]; 5 g ae/ha): 98% | % Visual Control 60 DAA SETFA ([2]; 10 g ae/ha): 80% | % Visual Control 60 DAA SETFA ([2]; 20 g ae/ha): 97% | % Visual Control 60 DAA ERIBO ([3]; 5 g ae/ha): 97% | % Visual Control 60 DAA ERIBO ([3]; 10 g ae/ha): 95% | % Visual Control 60 DAA ERIBO ([3]; 20 g ae/ha): 93% | % Visual Control 60 DAA MALPA ([4]; 5 g ae/ha): 75% | % Visual Control 60 DAA MALPA ([4]; 10 g ae/ha): 72% | % Visual Control 60 DAA MALPA ([4]; 20 g ae/ha): 73% | % Visual Control 60 DAA PANCA ([5]; 5 g ae/ha): 82% | % Visual Control 60 DAA PANCA ([5]; 10 g ae/ha): 88% | % Visual Control 60 DAA PANCA ([5]; 20 g ae/ha): 86% | % Visual Control 60 DAA EROCI ([6]; 5 g ae/ha): 62% | % Visual Control 60 DAA EROCI ([6]; 10 g ae/ha): 70% | % Visual Control 60 DAA EROCI ([6]; 20 g ae/ha): 86% | % Visual Control 57 DAA AMARE ([7]; 2.5 g ae/ha): 95% | % Visual Control 57 DAA AMARE ([7]; 5 g ae/ha): 96.7% | % Visual Control 57 DAA AMARE ([7]; 10 g ae/ha): 100% | % Visual Control 57 DAA AMSIN ([8]; 2.5 g ae/ha): 38.3% | % Visual Control 57 DAA AMSIN ([8]; 5 g ae/ha): 76.7% | % Visual Control 57 DAA AMSIN ([8]; 10 g ae/ha): 97.3% | % Visual Control 57 DAA CHEAL ([9]; 2.5 g ae/ha): 100% | % Visual Control 57 DAA CHEAL ([9]; 5 g ae/ha): 96.7% | % Visual Control 57 DAA CHEAL ([9]; 10 g ae/ha): 100% | % Visual Control 57 DAA CAPBP ([10]; 2.5 g ae/ha): 91.7% | % Visual Control 57 DAA CAPBP ([10]; 5 g ae/ha): 99.3% | % Visual Control 57 DAA CAPBP ([10]; 10 g ae/ha): 100% | % Visual Control 57 DAA IPOSS ([11]; 2.5 g ae/ha): 57.8% | % Visual Control 57 DAA IPOSS ([11]; 5 g ae/ha): 65% | % Visual Control 57 DAA IPOSS ([11]; 10 g ae/ha): 66.7% | % Visual Control 59 DAA STEME ([12]; 2.5 g ae/ha): 46.7% | % Visual Control 59 DAA STEME ([12]; 5 g ae/ha): 94% | % Visual Control 59 DAA STEME ([12]; 10 g ae/ha): 95.7% | % Visual Control 59 DAA MALPA ([13]; 2.5 g ae/ha): 80% | % Visual Control 59 DAA MALPA ([13]; 5 g ae/ha): 90% | % Visual Control 59 DAA MALPA ([13]; 10 g ae/ha): 96.7% | % Visual Control 59 DAA MEDPO ([14]; 2.5 g ae/ha): 100% | % Visual Control 59 DAA MEDPO ([14]; 5 g ae/ha): 100% | % Visual Control 59 DAA MEDPO ([14]; 10 g ae/ha): 100% | % Visual Control 59 DAA EROCI ([15]; 2.5 g ae/ha): 43.3% | % Visual Control 59 DAA EROCI ([15]; 5 g ae/ha): 89.7% | % Visual Control 59 DAA EROCI ([15]; 10 g ae/ha): 94% | % Visual Control 48 DAA CLNCM ([16]; 2.5 g ae/ha): 27.6% | % Visual Control 48 DAA CLNCM ([16]; 5 g ae/ha): 43.3% | % Visual Control 48 DAA CLNCM ([16]; 10 g ae/ha): 86.7% | % Visual Control 48 DAA AMSIN ([17]; 2.5 g ae/ha): 25% | % Visual Control 48 DAA AMSIN ([17]; 5 g ae/ha): 43.3% | % Visual Control 48 DAA AMSIN ([17]; 10 g ae/ha): 36.7% | % Visual Control 48 DAA CAPBP ([18]; 2.5 g ae/ha): 50% | % Visual Control 48 DAA CAPBP ([18]; 5 g ae/ha): 76.7% | % Visual Control 48 DAA CAPBP ([18]; 10 g ae/ha): 90%
